This passage reports overall survival and half-life results from US20130150386A1 (priority 2011, published 2013).

The subject of one data set is NSCLC patients. The settings on record: E-cad 3+ sub-group [N=26].
The conditions of data set [1]: in vivo; cited from earlier work.

Molecules are shown by their SMILES.

With `C#Cc1cccc(Nc2ncnc3cc(OCCOC)c(OCCOC)cc23)c1` [erlotinib/placebo], the overall survival with NSCLC patients is 5.4 months. For `Nc1ccccc1NC(=O)c1ccc(CNC(=O)OCc2cccnc2)cc1` [Entinostat, N-(2-aminophenyl)-4-[N-(pyridine-3-yl)methoxycarbonylamino-methyl]-benzamide], in data set [1], the half-life entry was “about 100 hours”.
